# Test results from patent publication US20230052517A1, “ELECTROCHEMICAL SENSING METHODS AND APPARATUS FOR DETERMINING DRUG UPTAKE AND RETENTION IN CELLS” (priority 2020, published 2023).
# Like-named read-outs stand apart in the source and are kept apart here.
# Experiments:
# [1] = system: Pseudomonas aeruginosa PAO1 (wild type strain, containing efflux pumps); test: Tobramycin uptake by DPV of the supernatant, PAO1 strain; type: cell-based; conditions: for Percentage of Tobramycin in Supernatant, PAO1: 2 mM Tobramycin, 1X PBS, 0.4% glucose, 37° C., DPV on GCE at pH 3
# Procedure: (§1) (i.e. 15 minutes; 30 minutes and 60 minutes). […] Integration underneath the curves provides the charge.
# (§2) The uptake of another antibiotic, Tobramycin (2 mM) was analyzed in Pseudomonas aeruginosa using DPV. […] As summarized in TABLE 3, the concentration of the control remains stable over different times of incubation at 37° C. […] At 15 min, the hyper-susceptible PAO750 removes about 26% of Tobramycin, which is slightly more than the wild type. […] A concentration of 2 mM Tobramycin appears to have been too high for the cells to withstand. […] As both of these strains are not resistant to Tobramycin, cell lysis at prolonged incubation times was expected.
# [2] = system: Pseudomonas aeruginosa PAO750 (hyper-susceptible strain, efflux pumps deleted); type: cell-based; conditions: for Percentage of Tobramycin in Supernatant, PAO750: 2 mM Tobramycin, 1X PBS, 0.4% glucose, 37° C., DPV on GCE at pH 3
# Procedure: as §1, §2
# [3] = Control drug solution without bacterial cells incubated at 37° C., DPV; conditions: for Percentage of Tobramycin in Supernatant, Control: 2 mM Tobramycin in 1X PBS, 0.4% glucose without bacterial cells
# Procedure: DPV measurements of 1 mM Cip were taken and after incubation, centrifugation was performed at 4000 rpm for 10 min and the supernatant was collected.
# Similarly uptake of Tobramycin (2 mM), was analyzed in Pseudomonas aeruginosa also using DPV. The control solutions were tested before and after incubation at 37° C. and with different incubation times at 37° C. (i.e. 15 minutes; 30 minutes and 60 minutes). […] Integration underneath the curves provides the charge. This charge is proportional to the number of molecules transferred during DPV recordings (see FIGS. 11-14).
# [4] = system: A2780-s and A2780-cp ovarian cancer cells; test: SECM electrochemical response of ovarian cancer cells to carboplatin (FcCH2OH regeneration); type: cell-based
# Procedure: Carboplatin-susceptible (A2780-s) and carboplatin-resistant (A2780-cp) ovarian cancer cells were grown in petri dishes at 37° C. until a confluence of approximately 60 to 70% was reached. Cells were exposed to a PBS solution containing 1 mM ferrocenemethanol (FcCH2OH) at 37° C. for 45 minutes. Following this incubation, the petri dish was inserted into a scanning electrochemical microscope (SECM), equipped with a camera, fluorescence unit and a heating stage. Target cells were identified using an approach curve and a horizontal line scan was carried out across the cells every 5 to 10 minutes. The solution in the petri dish was exchanged for a PBS solution containing 2 mM carboplatin and 1 mM ferrocenemethanol (FcCH2OH). Horizontal line scans were carried out every 5 to 10 minutes to record the electrochemical response by the cells.
# [5] = system: carboplatin-susceptible and carboplatin-resistant ovarian cancer cell line; test: Voltammetric carboplatin uptake study in ovarian cancer cells; type: cell-based; conditions: one carboplatin-susceptible and one carboplatin-resistant cell line
# Procedure: Further work was done by the inventors^45 to evaluate the electrochemical detection of chemotherapeutic uptake by ovarian cancer cells, whereby an electrochemical characterization of carboplatin was evaluated for detection limits and pH dependence. Furthermore, bioelectrochemical studies quantified carboplatin uptake by ovarian cancer cells.
# [6] = system: Pseudomonas bacteria (PAO1 and PA262); conditions: not told
# Procedure: After 25 min of incubation, the bacteria suspension is centrifuged, cells are resuspended in PBS and drop-casted onto a 3-mm glassy carbon macroelectrode (see FIG. 1D). Other macroelectrode materials, such as gold, platinum, etc. could be employed in the same way. The electrode is then placed in a KCl solution and DPV is performed at a potential rage of zero to 1.0V. This potential range would be adjusted depending on the drug of interest.
# When the electrode is placed in the KCl solution, various time intervals were applied before driving the oxidation reaction at the electrode.
smiles,measurement,setting,value
NC[C@H]1O[C@H](O[C@H]2[C@H](O)[C@@H](O[C@H]3O[C@H](CO)[C@@H](O)[C@H](N)[C@H]3O)[C@H](N)C[C@@H]2N)[C@H](N)C[C@@H]1O [Tobramycin],"Percentage of Tobramycin in Supernatant, PAO1",[1]; 15 minutes,80%
same,"Percentage of Tobramycin in Supernatant, PAO1",[1]; 30 minutes,81%
same,"Percentage of Tobramycin in Supernatant, PAO1",[1]; 60 minutes,99%
same,"uptake observation at prolonged incubation, PAO1","[1]; 2 mM, 60 min",A similar effect is seen in PAO1
same,Tobramycin taken up from the solution by PAO1,"[1]; 2 mM, incubation times of 15 and 30 min",approximately 20%
same,time to establishment of equilibrium of intracellular and extracellular Tobramycin,"[1]; PAO1, 2 mM",< 15 min
same,"Percentage of Tobramycin in Supernatant, PAO750",[2]; 15 minutes,74%
same,"Percentage of Tobramycin in Supernatant, PAO750",[2]; 30 minutes,95%
same,"Percentage of Tobramycin in Supernatant, PAO750",[2]; 60 minutes,99%
same,Tobramycin removed by PAO750,"[2]; 2 mM, 15 min",about 26%
same,"uptake observation at prolonged incubation, PAO750","[2]; 2 mM, 30 min","the uptake is failing, probably due to cell lysis of PAO750"
same,stability of Tobramycin control solution (DPV currents before and after incubation),[3]; 2 mM,"do not vary, indicating stable 2 mM Tobramycin concentrations"
same,"Percentage of Tobramycin in Supernatant, Control",[3]; 15 minutes,99%
same,"Percentage of Tobramycin in Supernatant, Control",[3]; 30 minutes,99%
same,"Percentage of Tobramycin in Supernatant, Control",[3]; 60 minutes,95%
N.N.O=C([O-])C1(C(=O)[O-])CCC1.[Pt+2] [carboplatin],time for slope increase to relax back to its initial value,[4]; A2780-cp cells,5 to 10 min
same,change of slope (peak current vs scan velocity) after drug exposure,"[4]; A2780-cp cells, 2 mM carboplatin, 1 mM FcCH2OH",an increase in slope right after carboplatin exposure was observed
same,difference in SECM response between susceptible and resistant cells,[4]; A2780-s vs A2780-cp,A clear difference between carboplatin-susceptible and carboplatin-resistant cells
same,drug uptake detected by voltammetry,[5],demonstrated the detection of carboplatin uptake
O=C(O)c1cn(C2CC2)c2cc(N3CCNCC3)c(F)cc2c1=O [ciprofloxacin],DPV current of drop-casted bacteria after incubation with drug (export from the bacteria),[6],significant increase in current
same,dependence of export current peak on wait time,[6],a longer wait time results in a higher current peak
